Entries after “also recorded” stand apart in the source; their conditions may differ. Square brackets hold non-standard residues; d marks the D form. Ends that are not written are not given here. * marks the point of attachment. FITC = O=C1OC2(c3ccc(O)cc3Oc3cc(O)ccc32)c2ccc(NC(=S)*)cc21; Hyp = O=C(O)[C@@H]1C[C@@H](O)CN1; Chg = N[C@H](C(=O)O)C1CCCCC1
Columns and labels:
[1] = molecular target: T1, prostate-specific antigen (Homo sapiens, UniProt P07288); test: HPLC study of peptide specificity for prostate-specific antigen; type: biochemical; details: in the presence of prostate-specific antigen enzyme; fluorescence detection 480/525 nm
From the text: The Study of Peptide Specificity for Prostate-Specific Antigen: • The high performance liquid chromatography is used for application in study of peptide separation, peptide purity analysis and specific enzyme-cutting specificity for a peptide substrate. […] The goal of the study of the present invention is to develop prostate peptide substrates and enzymes by in-vitro experiments.
The chromatographic diagrams of specificity analysis of the prostate peptide substrates and prostate-specific antigen are shown in FIGS. 3 and 4. The conditions of the HPLC are as follows: a reverse C18 chromatography column, mobile phase is methyl alcohol: 1% triethylamine=60:40(v/v), flow rate is 0.5 ml/min. […] There are two peaks in the spectrums if HPLC runs in the presence of the prostate-specific antigen with the retention times being 2.7 and 3.2 min as shown in FIG. 3.

[2] = molecular target: T1, prostate-specific antigen; test: Quenching and non-quenching study: fluorescence intensity over time after reaction with prostate-specific antigen; type: biochemical; details: 35 minutes
From the text: FIG. 5. is a fluorescence absorption verse time diagram showing fluorescence intensity of a control peptide probe (×) for a prostate peptide substrate probe Cy-prostate-PGC (▪), control peptide probe (Δ) and a prostate peptide probe in the presence of a prostate-specific antigen (♦) according to the present invention;
At different time, a prostate peptide substrate and prostate control peptide are reacted with an enzyme of prostate-specific antigen to record its fluorescence spectrum and the results are shown in FIG. 5. […] When the reaction time for the reaction between prostate peptide substrate and the prostate-specific antigen reaches 35 minutes and the signal intensity becomes 5 times as that of the original fluorescence intensity.

T1 sequence (P07288 25-261): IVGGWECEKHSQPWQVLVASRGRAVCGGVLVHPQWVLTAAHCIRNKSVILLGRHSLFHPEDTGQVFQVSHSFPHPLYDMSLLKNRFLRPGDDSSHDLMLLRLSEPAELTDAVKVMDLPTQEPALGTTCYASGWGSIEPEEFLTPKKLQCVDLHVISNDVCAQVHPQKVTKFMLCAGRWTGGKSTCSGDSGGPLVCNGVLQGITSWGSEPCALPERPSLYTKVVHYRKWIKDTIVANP

G[Hyp]AS[Chg]QSLMK(FITC)C-NH2 [prostate peptide substrate]
cutting of the peptide by prostate-specific antigen (HPLC) [1]: can cut Gln-Ser residue; also recorded: one major cut
fluorescence signal intensity relative to the original fluorescence intensity [2]: 5 times
